# In patent US8192962B2, “Processes for detecting toxic substances” (Daikin Industries, Ltd., priority 2001, dated 2012):
# Tested on: Genes belonging to other category
# Assay: DNA chip mRNA expression in yeast, genes belonging to other category (Table 9)
# Assay type: cell-based, Saccharomyces cerevisiae S288C
# How it was run: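 Cells were grown at 25° C. in YPD, treated at logarithmic phase for 2 h with a chemical at a concentration inhibiting growth but not causing death, and compared with untreated cultures. Labeled cDNA was hybridized to a DNA chip carrying all yeast genes, and the expression ratio was taken from scanner fluorescence.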
compound,measurement,setting,value
"C[S+](C)[O-] [(15), dimethylsulfoxide]",The level of expressed mRNA in the presence of chemical substance/The level of expressed mRNA in the absence of chemical substance,yeast gene YAR010C,1.8
same,The level of expressed mRNA in the presence of chemical substance/The level of expressed mRNA in the absence of chemical substance,yeast gene YBL005W-A,0.9
same,The level of expressed mRNA in the presence of chemical substance/The level of expressed mRNA in the absence of chemical substance,yeast gene YBL041W,1.3
same,The level of expressed mRNA in the presence of chemical substance/The level of expressed mRNA in the absence of chemical substance,yeast gene YBL043W,1.8
same,The level of expressed mRNA in the presence of chemical substance/The level of expressed mRNA in the absence of chemical substance,yeast gene YBR109C,1.4
same,The level of expressed mRNA in the presence of chemical substance/The level of expressed mRNA in the absence of chemical substance,yeast gene YBR201W,1.6
same,The level of expressed mRNA in the presence of chemical substance/The level of expressed mRNA in the absence of chemical substance,yeast gene YBR214W,5.1
same,The level of expressed mRNA in the presence of chemical substance/The level of expressed mRNA in the absence of chemical substance,yeast gene YCL027W,3.6
same,The level of expressed mRNA in the presence of chemical substance/The level of expressed mRNA in the absence of chemical substance,yeast gene YCR004C,0.8
same,The level of expressed mRNA in the presence of chemical substance/The level of expressed mRNA in the absence of chemical substance,yeast gene YCR088W,2.8
same,The level of expressed mRNA in the presence of chemical substance/The level of expressed mRNA in the absence of chemical substance,yeast gene YDL007W,1.4
same,The level of expressed mRNA in the presence of chemical substance/The level of expressed mRNA in the absence of chemical substance,yeast gene YDL008W,0.7
same,The level of expressed mRNA in the presence of chemical substance/The level of expressed mRNA in the absence of chemical substance,yeast gene YDL126C,1.7
same,The level of expressed mRNA in the presence of chemical substance/The level of expressed mRNA in the absence of chemical substance,yeast gene YDL238C,1.3
same,The level of expressed mRNA in the presence of chemical substance/The level of expressed mRNA in the absence of chemical substance,yeast gene YDR055W,5.7
same,The level of expressed mRNA in the presence of chemical substance/The level of expressed mRNA in the absence of chemical substance,yeast gene YDR085C,3.1
same,The level of expressed mRNA in the presence of chemical substance/The level of expressed mRNA in the absence of chemical substance,yeast gene YDR104C,1.4
same,The level of expressed mRNA in the presence of chemical substance/The level of expressed mRNA in the absence of chemical substance,yeast gene YDR115W,0.8
same,The level of expressed mRNA in the presence of chemical substance/The level of expressed mRNA in the absence of chemical substance,yeast gene YDR259C,2.9
same,The level of expressed mRNA in the presence of chemical substance/The level of expressed mRNA in the absence of chemical substance,yeast gene YDR315C,1.5
same,The level of expressed mRNA in the presence of chemical substance/The level of expressed mRNA in the absence of chemical substance,yeast gene YDR358W,0.9
same,The level of expressed mRNA in the presence of chemical substance/The level of expressed mRNA in the absence of chemical substance,yeast gene YDR388W,2.6
same,The level of expressed mRNA in the presence of chemical substance/The level of expressed mRNA in the absence of chemical substance,yeast gene YDR432W,2.6
same,The level of expressed mRNA in the presence of chemical substance/The level of expressed mRNA in the absence of chemical substance,yeast gene YDR481C,3.5
same,The level of expressed mRNA in the presence of chemical substance/The level of expressed mRNA in the absence of chemical substance,yeast gene YDR510W,2.2
same,The level of expressed mRNA in the presence of chemical substance/The level of expressed mRNA in the absence of chemical substance,yeast gene YEL066W,1.0
same,The level of expressed mRNA in the presence of chemical substance/The level of expressed mRNA in the absence of chemical substance,yeast gene YER107C,0.7
same,The level of expressed mRNA in the presence of chemical substance/The level of expressed mRNA in the absence of chemical substance,yeast gene YER159C,2.2
same,The level of expressed mRNA in the presence of chemical substance/The level of expressed mRNA in the absence of chemical substance,yeast gene YFL028C,0.8
same,The level of expressed mRNA in the presence of chemical substance/The level of expressed mRNA in the absence of chemical substance,yeast gene YGL158W,2.3
same,The level of expressed mRNA in the presence of chemical substance/The level of expressed mRNA in the absence of chemical substance,yeast gene YGL229C,0.2
same,The level of expressed mRNA in the presence of chemical substance/The level of expressed mRNA in the absence of chemical substance,yeast gene YGR136W,2.6
same,The level of expressed mRNA in the presence of chemical substance/The level of expressed mRNA in the absence of chemical substance,yeast gene YGR213C,6.5
same,The level of expressed mRNA in the presence of chemical substance/The level of expressed mRNA in the absence of chemical substance,yeast gene YGR257C,1.3
same,The level of expressed mRNA in the presence of chemical substance/The level of expressed mRNA in the absence of chemical substance,yeast gene YHR071W,3.0
same,The level of expressed mRNA in the presence of chemical substance/The level of expressed mRNA in the absence of chemical substance,yeast gene YHR139C,1.9
same,The level of expressed mRNA in the presence of chemical substance/The level of expressed mRNA in the absence of chemical substance,yeast gene YIL140W,3.3
same,The level of expressed mRNA in the presence of chemical substance/The level of expressed mRNA in the absence of chemical substance,yeast gene YJL030W,1.5
same,The level of expressed mRNA in the presence of chemical substance/The level of expressed mRNA in the absence of chemical substance,yeast gene YJL073W,2.6
same,The level of expressed mRNA in the presence of chemical substance/The level of expressed mRNA in the absence of chemical substance,yeast gene YJL116C,1.0
same,The level of expressed mRNA in the presence of chemical substance/The level of expressed mRNA in the absence of chemical substance,yeast gene YJR004C,3.2
same,The level of expressed mRNA in the presence of chemical substance/The level of expressed mRNA in the absence of chemical substance,yeast gene YJR029W,1.8
same,The level of expressed mRNA in the presence of chemical substance/The level of expressed mRNA in the absence of chemical substance,yeast gene YJR086W,2.0
same,The level of expressed mRNA in the presence of chemical substance/The level of expressed mRNA in the absence of chemical substance,yeast gene YJR099W,0.5
same,The level of expressed mRNA in the presence of chemical substance/The level of expressed mRNA in the absence of chemical substance,yeast gene YJR122W,0.8
same,The level of expressed mRNA in the presence of chemical substance/The level of expressed mRNA in the absence of chemical substance,yeast gene YKL008C,1.3
same,The level of expressed mRNA in the presence of chemical substance/The level of expressed mRNA in the absence of chemical substance,yeast gene YKL039W,3.1
same,The level of expressed mRNA in the presence of chemical substance/The level of expressed mRNA in the absence of chemical substance,yeast gene YKL041W,1.0
same,The level of expressed mRNA in the presence of chemical substance/The level of expressed mRNA in the absence of chemical substance,yeast gene YKL096W,2.3
same,The level of expressed mRNA in the presence of chemical substance/The level of expressed mRNA in the absence of chemical substance,yeast gene YKL139W,1.0
